According to ChEMBL document CHEMBL5726571, “5-hydroxytryptamine receptor 7 activity modulators and their method of use” (2017):

Biological target: 5-hydroxytryptamine receptor 7 (Homo sapiens, UniProt P34969)
Experiment: Radiolabel Binding Assay: A stock concentration of 5 nM [3H]LSD (lysergic acid diethyl amide) is prepared in 50 mM Tris-HCl, 10 mM MgCl2, 1 mM EDTA, pH 7.4 (Assay Buffer). Aliquots (50 μl) of radioligand are dispensed into the wells of a 96-well plate containing 100 μl of Assay Buffer. Duplicate 50-μl aliquots of the compound of the disclosure test and chlorpromazine positive control reference compound serial dilutions are added.Membrane fractions of cells expressing recombinant 5HT7 receptors (50 μL) are dispensed into each well. The membranes are prepared from stably tranfected cell lines expressing 5HT7 receptors cultured on 10-cm plates by harvesting PBS-rinsed monolayers, resuspending and lysing in chilled, hypotonic 50 mM Tris-HCl, pH 7.4, centrifuging at 20,000×g, decanting the supernatant and storing at −80° C.; the membrane preparations are resuspended in 3 ml of chilled Assay Buffer and homogenized by several passages through a 26 gauge needle before using in the assay.

5-hydroxytryptamine receptor 7, sequence (P34969 whole entry): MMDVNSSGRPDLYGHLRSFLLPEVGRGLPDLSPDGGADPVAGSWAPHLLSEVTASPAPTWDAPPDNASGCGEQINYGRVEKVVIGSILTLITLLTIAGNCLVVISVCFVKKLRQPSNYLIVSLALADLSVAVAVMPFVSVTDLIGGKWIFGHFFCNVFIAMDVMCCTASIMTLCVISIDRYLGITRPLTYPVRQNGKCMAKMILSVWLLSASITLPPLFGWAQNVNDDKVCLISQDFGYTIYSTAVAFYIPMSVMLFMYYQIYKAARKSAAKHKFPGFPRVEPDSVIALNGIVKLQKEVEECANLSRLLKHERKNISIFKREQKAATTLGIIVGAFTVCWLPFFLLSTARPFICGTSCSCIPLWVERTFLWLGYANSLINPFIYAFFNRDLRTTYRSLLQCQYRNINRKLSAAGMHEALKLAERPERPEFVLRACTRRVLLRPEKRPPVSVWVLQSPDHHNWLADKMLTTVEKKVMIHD

| IC50 [nM] | SMILES |
| --- | --- |
| 363 | CCC1(CC)CC(CCN2CCN(c3ccc(C)cc3C)CC2)OC1=O (stereo not drawn) |
| 1380 | CCC1(CC)CC(CCN2CCN(c3c(C)cccc3C)CC2)OC1=O (stereo not drawn) |
| 165 | CCC1(CC)CC(CCN2CCN(c3cccc(OC)c3)CC2)OC1=O (stereo not drawn) |
| 89 | CCC1(CC)CC(CCN2CCN(c3ccc(O)cc3)CC2)OC1=O (stereo not drawn) |
| 471 | CCC1(CC)CC(CCN2CCN(c3ccc(N)cc3)CC2)OC1=O (stereo not drawn) |
| 118 | CCC1(CC)CC(CCN2CCN(c3ccccc3OC)CC2)OC1=O (stereo not drawn) |
| 33 | O=C1OC(CCN2CCN(c3ccccc3)CC2)CC12CCCCC2 (stereo not drawn) |
| 183 | O=C1OC(CCN2CCN(c3ccc(C(F)(F)F)cc3)CC2)CC12CCCCC2 (stereo not drawn) |
| 1520 | N#Cc1ccc(N2CCN(CCC3CC4(CCCCC4)C(=O)O3)CC2)nc1 (stereo not drawn) |
| 749 | O=C1OC(CCN2CCN(c3cccnc3)CC2)CC12CCCCC2 (stereo not drawn) |
| 145 | Cc1ccc(N2CCN(CCC3CC(c4ccccc4)(c4ccccc4)C(=O)O3)CC2)cc1 (stereo not drawn) |
| 44 | O=C1OC(CCN2CCN(c3ccccn3)CC2)CC12CCCCC2 (stereo not drawn) |
| 146 | Cc1ccc(N2CCN(CCCC3CC(c4ccccc4)(c4ccccc4)C(=O)O3)CC2)cc1 (stereo not drawn) |
| 156 | CCC1(CC)CC(CCN2CCN(c3ccccc3O)CC2)OC1=O (stereo not drawn) |
| 24 | CC(C)c1ccccc1N1CCN(CCC2CC3(CCCC3)C(=O)O2)CC1 (stereo not drawn) |
| 134 | CCC1(CC)CC(CCN2CCN(c3ccc(C#N)cc3)CC2)OC1=O (stereo not drawn) |
| 1920 | CC(C)(C)c1ccccc1N1CCN(CCC2CC3(CCCC3)C(=O)O2)CC1 (stereo not drawn) |
| 3160 | CCC1(CC)CC(CCN2CCN(c3ccc(C(O)(c4ccccc4)c4ccccc4)cc3)CC2)OC1=O (stereo not drawn) |
| 21 | CCC1(CC)CC(CCN2CCN(c3ccccc3)CC2)OC1=O (stereo not drawn) |
| 13 | CCC1(CC)CC(CCN2CCc3ccccc3C2)OC1=O (stereo not drawn) |
| 104 | CCC1(CC)CC(CCN2CCN(c3ccccc3C)CC2)OC1=O (stereo not drawn) |
| 72 | COc1ccccc1N1CCN(CCC2CC3(CCCCC3)C(=O)O2)CC1 (stereo not drawn) |
| 83 | CCC1(CC)CC(CCN2CCN(C(c3ccccc3)c3ccccc3)CC2)OC1=O (stereo not drawn) |
| 324 | CCC1(CC)CC(CCN2CCN(c3cccc(O)c3)CC2)OC1=O (stereo not drawn) |
| 56 | COc1cccc(N2CCN(CCC3CC4(CCCCC4)C(=O)O3)CC2)c1 (stereo not drawn) |
| 3760 | CCC1(CC)CC(CCN2CCN(C3CCCCC3)CC2)OC1=O (stereo not drawn) |
| 54 | CCC1(CC)CC(CCN2CCN(c3ccc([N+](=O)[O-])cc3)CC2)OC1=O (stereo not drawn) |
| 254 | O=C1OC(CCN2CCN(c3ccc(C(F)(F)F)cn3)CC2)CC12CCCCC2 (stereo not drawn) |
